Measured values from patent US20060063759A1, “Tricyclic steroid hormone nuclear receptor modulators” (priority 2002, published 2006).

Key:
human MR = target: T1, human MR (Homo sapiens, UniProt P08235); experiment: Mineralocorticoid Receptor Binding Assay ([3H]-aldosterone); conditions: [3H]-aldosterone binding, human MR expressed in Sf9 cells; read-out: MR Ki
T1 construct: The full length human MR gene is cloned from a human kidney or human brain cDNA library; His tag from the pAcHLT vector (own knowledge); made in house; host or cells: Sf9 insect cells (baculovirus, pAcHLT transfer vector)
T1 sequence (P08235 1-984): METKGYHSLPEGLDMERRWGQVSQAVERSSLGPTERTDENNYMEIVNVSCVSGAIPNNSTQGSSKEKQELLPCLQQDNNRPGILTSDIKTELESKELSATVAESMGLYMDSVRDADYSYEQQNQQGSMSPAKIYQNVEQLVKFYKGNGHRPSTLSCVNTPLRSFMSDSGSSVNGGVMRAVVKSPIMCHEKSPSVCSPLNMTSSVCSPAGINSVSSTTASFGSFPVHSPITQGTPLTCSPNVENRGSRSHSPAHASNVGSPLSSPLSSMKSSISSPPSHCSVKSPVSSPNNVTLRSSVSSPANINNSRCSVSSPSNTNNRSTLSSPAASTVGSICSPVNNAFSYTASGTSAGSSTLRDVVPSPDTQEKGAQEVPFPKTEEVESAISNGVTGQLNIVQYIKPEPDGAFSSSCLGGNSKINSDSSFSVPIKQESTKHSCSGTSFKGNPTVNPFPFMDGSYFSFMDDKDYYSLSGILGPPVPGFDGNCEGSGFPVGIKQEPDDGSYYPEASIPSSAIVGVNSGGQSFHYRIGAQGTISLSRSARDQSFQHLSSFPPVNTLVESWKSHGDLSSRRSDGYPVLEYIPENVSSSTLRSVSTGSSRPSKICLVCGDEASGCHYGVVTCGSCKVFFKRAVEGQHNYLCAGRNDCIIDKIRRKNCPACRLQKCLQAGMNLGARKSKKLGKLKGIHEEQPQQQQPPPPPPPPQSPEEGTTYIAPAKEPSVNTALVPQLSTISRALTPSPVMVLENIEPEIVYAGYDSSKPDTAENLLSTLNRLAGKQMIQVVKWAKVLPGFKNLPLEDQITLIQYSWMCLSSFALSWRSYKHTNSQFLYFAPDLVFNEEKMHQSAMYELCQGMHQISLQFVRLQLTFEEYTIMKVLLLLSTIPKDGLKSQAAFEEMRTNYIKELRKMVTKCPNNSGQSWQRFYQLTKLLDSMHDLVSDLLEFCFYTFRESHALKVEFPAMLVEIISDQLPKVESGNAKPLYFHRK
Method in brief: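 Lysate supernatant of Sf9 cells expressing full-length human MR (20-25 μg protein) was incubated with 0.5 nM [3H]-aldosterone and test compound in molybdate/Tris/phosphate/glycerol buffer, pH 7.5, ~16 h at 4 °C. Bound ligand was filtered and counted by scintillation; IC50 is the concentration halving [3H]-aldosterone binding.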

glucocorticoid receptor = target: T2, glucocorticoid receptor (Homo sapiens, UniProt P04150); experiment: Glucocorticoid Receptor Binding Assay ([3H]-dexamethasone, A549 cell extract); conditions: [3H]-dexamethasone binding, read-out: GR Ki
T2 construct: containing 50-200 ug of A549 cell extract and 1.86 nM [^3H]-dexamethasone; host or cells: A549 human lung epithelial cells (sonicated cell extract)
T2 sequence (P04150 1-777): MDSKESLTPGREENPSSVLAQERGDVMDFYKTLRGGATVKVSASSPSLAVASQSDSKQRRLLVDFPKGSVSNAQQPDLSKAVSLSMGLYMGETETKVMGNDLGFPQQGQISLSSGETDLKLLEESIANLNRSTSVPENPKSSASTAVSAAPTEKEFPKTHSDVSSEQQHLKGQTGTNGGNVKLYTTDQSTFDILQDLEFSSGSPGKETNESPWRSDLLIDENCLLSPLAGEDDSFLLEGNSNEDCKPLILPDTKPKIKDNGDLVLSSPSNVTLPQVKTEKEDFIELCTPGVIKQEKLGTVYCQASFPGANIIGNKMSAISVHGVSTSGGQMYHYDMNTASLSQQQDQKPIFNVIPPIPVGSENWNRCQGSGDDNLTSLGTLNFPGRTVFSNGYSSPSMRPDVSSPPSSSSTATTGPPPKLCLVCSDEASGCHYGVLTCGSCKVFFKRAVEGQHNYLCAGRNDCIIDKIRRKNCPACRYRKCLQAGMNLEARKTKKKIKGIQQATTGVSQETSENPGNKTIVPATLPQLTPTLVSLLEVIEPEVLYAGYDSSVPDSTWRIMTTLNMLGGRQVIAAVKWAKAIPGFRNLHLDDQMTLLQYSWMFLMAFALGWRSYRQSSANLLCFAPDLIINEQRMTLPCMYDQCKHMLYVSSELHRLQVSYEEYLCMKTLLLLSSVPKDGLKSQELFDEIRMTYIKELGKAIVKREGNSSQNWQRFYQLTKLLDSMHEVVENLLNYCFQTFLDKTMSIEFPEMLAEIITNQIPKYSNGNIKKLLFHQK
Description: All ligands, radioligands, solvents, and reagents employed in the binding assays are readily available from commercial sources, or can be readily synthesized by the ordinarily skilled artisan.
A549 human lung epithelial cells (ATCC) are grown at a scale where gram quantity cell pellets are obtained. Harvested cell pellets are washed twice in cold phosphate buffered saline, centrifuged, and resuspended in cold assay binding buffer. The assay binding buffer consists of 10% glycerol, 50 mM Tris-HCl (pH7.2), 75 mM sodium chloride, 1.5 mM magnesium chloride, 1.5 mM EDTA, and 10 mM sodium molybdate. Cell suspensions were lysed via sonication, centrifuged, and the “extract” supernatant is snap frozen and stored at −80 C until needed.
GR binding assays are performed in a final volume of 140 ul containing 50-200 ug of A549 cell extract and 1.86 nM [^3H]-dexamethasone (Amersham) plus varying concentrations of test compound or vehicle. Briefly, assays are prepared at RT in 96-well Fisher 3356 plates, each well containing 100 ul of A549 cell extract, 20 ul of [^3H]-dexamethasone, and 20 ul of test compound/vehicle. Incubations are carried out at 4 degrees Celsius for 16 hours. After incubation, 70 ul of 3× dextran-coated charcoal solution is added to each reaction, mixed, and incubated for 8 minutes at RT. 3×-dextran-coated charcoal solution consists of 250 ml assay binding buffer, 3.75 g Norit A charcoal (Sigma), and 1.25 g dextran T-70 (Amersham). Charcoal/unbound radioligand complexes are removed by centrifugation of the plate and 140 ul of supernatant from each well is transferred to another 96 well Optiplate (Packard Instruments). 200 ul of Microscint-20 scinillant (Packard Instruments) is added to each well and amount of receptor bound radioligand is determined using Packard Instruments TopCount instrument.

Ki (human MR)	Ki (glucocorticoid receptor)	SMILES
< 500 nM	< 500 nM	Oc1cccc(C=C2c3ccccc3CCc3c2ccc(Cl)c3Cl)c1 [198(a), 3-(1,2-Dichloro-10,11-dihydro-dibenzo[a,d]cyclohepten-5-ylidenemethyl)-phenol]
< 500 nM	< 1000 nM	Oc1cccc(C=C2c3ccccc3CCc3c2ccc(Cl)c3Cl)c1 [198(b), 3-(1,2-Dichloro-10,11-dihydro-dibenzo[a,d]cyclohepten-5-ylidenemethyl)-phenol]
< 500 nM	< 500 nM	CS(=O)(=O)Nc1cccc(C=C2c3ccccc3CCc3cc(F)ccc32)c1 [199(a), N-[3-(2-Fluoro-10,11-dihydro-dibenzo[a,d]cyclohepten-5-ylidenemethyl)-phenyl]-methanesulfonamide]
< 500 nM	< 500 nM	Oc1cccc(C=C2c3ccccc3CCc3cc(F)ccc32)c1 [200(a), 3-(2-Fluoro-10,11-dihydro-dibenzo[a,d]cyclohepten-5-ylidenemethyl)-phenol]
< 500 nM	< 500 nM	CS(=O)(=O)Nc1cccc(C=C2c3ccccc3CCc3cc(Cl)ccc32)c1 [206(b), N-[3-(2-Chloro-10,11-dihydro-dibenzo[a,d]cyclohepten-5-ylidenemethyl)-phenyl]-methanesulfonamide]
< 500 nM	< 500 nM	Oc1cccc(C=C2c3ccccc3CCc3c(Cl)cccc32)c1 [211(a), 3-(1-Chloro-10,11-dihydro-dibenzo[a,d]cyclohepten-5-ylidenemethyl)-phenol]
< 500 nM	< 1000 nM	Oc1cccc(C=C2c3ccccc3CCc3c(Cl)cccc32)c1 [211(b), 3-(1-Chloro-10,11-dihydro-dibenzo[a,d]cyclohepten-5-ylidenemethyl)-phenol]
< 500 nM	< 500 nM	Cc1nc2c(s1)/C(=C/c1cccc(NS(C)(=O)=O)c1)c1ccccc1CC2 [483(a), N-[3-(2-Methyl-9,10-dihydro-3-thia-1-aza-benzo[f]azulen-4-ylidenemethyl)-phenyl]-methanesulfonamide]
< 500 nM	< 500 nM	Cc1nc2c(s1)/C(=C\c1cccc(NS(C)(=O)=O)c1)c1ccccc1CC2 [483(b), N-[3-(2-Methyl-9,10-dihydro-3-thia-1-aza-benzo[f]azulen-4-ylidenemethyl)-phenyl]-methanesulfonamide]
< 1000 nM	< 500 nM	CS(=O)(=O)Nc1cccc(/C=C2\c3ccccc3CCc3scnc32)c1 [484(a), N-[3-(9,10-Dihydro-1-thia-3-aza-benzo[f]azulen-4-ylidenemethyl)-phenyl]-methanesulfonamide]
< 500 nM	< 500 nM	CS(=O)(=O)Nc1cccc(/C=C2/c3ccccc3CCc3scnc32)c1 [484(b), N-[3-(9,10-Dihydro-1-thia-3-aza-benzo[f]azulen-4-ylidenemethyl)-phenyl]-methanesulfonamide]
< 1000 nM	< 1000 nM	NS(=O)(=O)c1ccccc1C=C1c2ccccc2CCc2ccccc21 [Example 3, 2-(10,11-Dihydro-dibenzo[a,d]cyclohepten-5-ylidenemethyl)-benzenesulfonamide]
< 500 nM	< 500 nM	CN(C)S(=O)(=O)c1ccccc1C=C1c2ccccc2CCc2ccccc21 [Example 5, 2-(10,11-Dihydro-dibenzo[a,d]cyclohepten-5-ylidenemethyl)-N,N-dimethyl-benzenesulfonamide]
< 1000 nM	< 10000 nM	COc1ccc(N)cc1C=C1c2ccccc2CCc2ccccc21 [Example 41, 3-(10,11-Dihydro-dibenzo[a,d]cyclohepten-5-ylidenemethyl)-4-methoxy-phenylamine]
< 500 nM	< 10000 nM	COc1ccc(NS(C)(=O)=O)cc1C=C1c2ccccc2CCc2ccccc21 [Example 42, N-[3-(10,11-Dihydro-dibenzo[a,d]cyclohepten-5-ylidenemethyl)-4-methoxy-phenyl]-methanesulfonamide]
< 500 nM	< 1000 nM	Cc1ccc(C=C2c3ccccc3CCc3ccccc32)cc1NS(C)(=O)=O [Example 45, N-[5-(10,11-Dihydro-dibenzo[a,d]cyclohepten-5-ylidenemethyl)-2-methyl-phenyl]-methanesulfonamide]
< 500 nM	< 1000 nM	Cc1ccc(NS(C)(=O)=O)cc1C=C1c2ccccc2CCc2ccccc21 [Example 47, N-[3-(10,11-Dihydro-dibenzo[a,d]cyclohepten-5-ylidenemethyl)-4-methyl-phenyl]-methanesulfonamide]
< 500 nM	< 500 nM	Cc1c(C=C2c3ccccc3CCc3ccccc32)cccc1NS(C)(=O)=O [Example 48, N-[3-(10,11-Dihydro-dibenzo[a,d]cyclohepten-5-ylidenemethyl)-2-methyl-phenyl]-methanesulfonamide]
< 500 nM	< 500 nM	CS(=O)(=O)Nc1cc(C=C2c3ccccc3CCc3ccccc32)ccc1F [Example 49, N-[5-(10,11-Dihydro-dibenzo[a,d]cyclohepten-5-ylidenemethyl)-2-fluoro-phenyl]-methanesulfonamide]
< 500 nM	< 500 nM	CS(=O)(=O)Nc1cc(F)cc(C=C2c3ccccc3CCc3ccccc32)c1 [Example 50, N-[3-(10,11-Dihydro-dibenzo[a,d]cyclohepten-5-ylidenemethyl)-5-fluoro-phenyl]-methanesulfonamide]
< 500 nM	< 10000 nM	COc1ccc(OC)c(C=C2c3ccccc3CCc3ccccc32)c1 [Example 52, 5-(2,5-Dimethoxy-benzylidene)-10,11-dihydro-5H-dibenzo[a,d]cycloheptene]
< 500 nM	< 500 nM	Oc1cc(O)cc(C=C2c3ccccc3CCc3ccccc32)c1 [Example 54, 5-(10,11-Dihydro-dibenzo[a,d]cyclohepten-5-ylidenemethyl)-benzene-1,3-diol]
